Laboratory results taken from US5460806A, “Bis(2-mercaptoethyl) sulfone” (President and Fellows of Harvard College, priority 1993, dated 1995).
Entries after “also recorded” stand apart in the source; their conditions may differ.

Tests used:
[1] = pKa of the dithiol; type: physicochemical
From the text: (§1) The following is taken from Lamoureux and Whitesides, 58 J. Org. Chem. 633, 1993, hereby incorporated by reference herein. The general methodology and equations used for analysis are presented there, and are not repeated here.

[2] = thiol/disulfide equilibrium (reduction strength) relative to oxidized mercaptoethanol
From the text: In addition to a fast rate of reduction, a useful dithiol should be strongly reducing in order to reduce disulfides quantitatively and to maintain thiols in the reduced state without the inconvenience of mixed disulfides. […] We have used this equilibrium to evaluate several dithiols in terms of their reduction strength.
as §1

[3] = stability of aqueous solution of the dithiol; type: physicochemical; conditions: over several days, protected from atmospheric oxygen
[4] = cited from earlier work; for reducing strength: reduction of a disulfide bond

For O=S(=O)(CCS)CCS [bis(2-mercaptoethyl) sulfone, Bis(2-mercaptoethyl) sulfone], the pKa [1] was roughly 7.9, the “equilibrium constant relative to oxidized mercaptoethanol” value [2] was “about 63” and the “signs of decomposition of aqueous solution” value [3] was “no signs of decomposition”.
In the case of OCCS [Mercaptoethanol], the “rate of reduction (in words)” value ([4]; background statement, pH not given) is listed as “slow” and the reducing strength ([4]; background statement) is listed as “weak”.
In the case of O[C@H](CS)[C@H](O)CS (racemic) [DTT, Dithiothreitol], the “rate of reduction (in words), pH=7” value ([4]; pH=7, background statement) is given as “kinetically slow” and the reducing strength ([4]; background statement) is given as “strong reductant; also recorded: one of the most strongly reducing dithiols”.
